# From ChEMBL document CHEMBL1201862, “PubChem BioAssay data set” (2004)
#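 Five concentrations, 48 hours, 96-well plates. Here, GI50 denotes the concentration required for 50% inhibition of growth.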 Calls of active or inactive are those of the source. Cut-off read from the data, not from the text of the source: active = GI50 up to about 1.1 µM and inactive = higher.
# Columns and labels:
# Experiment in all cases: inhibition of tumour cell growth, NCI panel, 48 h
# MDA-MB-435 = system: MDA-MB-435
# UO-31 = system: UO-31
# OVCAR-8 = system: OVCAR-8
# HCT-15 = system: HCT-15
# SF-268 = system: SF-268
# BT-549 = system: BT-549
# UACC-257 = system: UACC-257
# HCC 2998 = system: HCC 2998
# NCI-H460 = system: NCI-H460
# K562 = system: K562
# RPMI-8226 = system: RPMI-8226
# SF-295 = system: SF-295
# HOP-62 = system: HOP-62
# A498 = system: A498
# SNB-19 = system: SNB-19
# OVCAR-5 = system: OVCAR-5
# 786-0 = system: 786-0
# HOP-92 = system: HOP-92
# A549 = system: A549
# NCI-H522 = system: NCI-H522
# SK-MEL-28 = system: SK-MEL-28
# EKVX = system: EKVX
# T47D = system: T47D
# IGROV-1 = system: IGROV-1
# U-251 = system: U-251
# RXF 393 = system: RXF 393
# NCI/ADR-RES = system: NCI/ADR-RES
# DU-145 = system: DU-145
# SN12C = system: SN12C
# MOLT-4 = system: MOLT-4
# OVCAR-4 = system: OVCAR-4
# ACHN = system: ACHN
# M14 = system: M14
# SK-OV-3 = system: SK-OV-3
# TK-10 = system: TK-10
# CCRF-CEM = system: CCRF-CEM
# CAKI-1 = system: CAKI-1
# SF-539 = system: SF-539
# OVCAR-3 = system: OVCAR-3
# SK-MEL-5 = system: SK-MEL-5
# SR = system: SR
# HCT-116 = system: HCT-116
# MDA-MB-231 = system: MDA-MB-231
# UACC-62 = system: UACC-62
# NCI-H23 = system: NCI-H23
# MCF7 = system: MCF7
# SK-MEL-2 = system: SK-MEL-2
# COLO 205 = system: COLO 205
# MDA-N = system: MDA-N
# Malme-3M = system: Malme-3M
# PC-3 = system: PC-3
# LOX IMVI = system: LOX IMVI
# HL-60 = system: HL-60
# NCI-H226 = system: NCI-H226
# SNB-75 = system: SNB-75
# SW-620 = system: SW-620
# HT-29 = system: HT-29
# KM12 = system: KM12
# Hs-578T = system: Hs-578T
compound,measurement,setting,value
CSc1ccc2c(cc1=O)[C@@H](NC(=O)c1ccc(N)cc1)CCc1cc(O)c(O)c(O)c1-2,GI50,MDA-MB-435,14.5 µM (inactive)
same,GI50,UO-31,20.3 µM (inactive)
same,GI50,OVCAR-8,26.5 µM (inactive)
same,GI50,HCT-15,11.2 µM
same,GI50,SF-268,14.3 µM (inactive)
same,GI50,BT-549,16.9 µM (inactive)
same,GI50,UACC-257,20.8 µM (inactive)
same,GI50,HCC 2998,13.6 µM (inactive)
same,GI50,NCI-H460,15 µM (inactive)
same,GI50,K562,12.1 µM (inactive)
same,GI50,RPMI-8226,35 µM (inactive)
same,GI50,SF-295,17.2 µM (inactive)
same,GI50,HOP-62,14.4 µM (inactive)
same,GI50,A498,73.8 µM (inactive)
same,GI50,SNB-19,21.8 µM (inactive)
same,GI50,OVCAR-5,22 µM (inactive)
same,GI50,786-0,12.8 µM (inactive)
same,GI50,HOP-92,29.4 µM (inactive)
same,GI50,A549,19.1 µM (inactive)
same,GI50,NCI-H522,13.8 µM (inactive)
same,GI50,SK-MEL-28,> 75 µM (inactive)
same,GI50,EKVX,36.4 µM (inactive)
same,GI50,T47D,44 µM (inactive)
same,GI50,IGROV-1,20.4 µM (inactive)
same,GI50,U-251,19.4 µM (inactive)
same,GI50,RXF 393,> 75 µM (inactive)
same,GI50,NCI/ADR-RES,18.6 µM (inactive)
same,GI50,DU-145,> 75 µM (inactive)
same,GI50,SN12C,29.5 µM (inactive)
same,GI50,MOLT-4,33.1 µM (inactive)
same,GI50,OVCAR-4,16.1 µM (inactive)
same,GI50,ACHN,17 µM (inactive)
O=c1c(O)c(-c2ccccc2)oc2c(CP(=O)(O)O)cccc12,GI50,MDA-MB-435,> 100 µM (inactive)
same,GI50,M14,> 100 µM (inactive)
same,GI50,SK-OV-3,> 100 µM (inactive)
same,GI50,TK-10,> 100 µM (inactive)
same,GI50,HCT-15,> 100 µM
same,GI50,BT-549,> 100 µM (inactive)
same,GI50,UACC-257,> 100 µM (inactive)
same,GI50,HCC 2998,> 100 µM (inactive)
same,GI50,NCI-H460,> 100 µM (inactive)
same,GI50,K562,> 100 µM (inactive)
same,GI50,SF-295,> 100 µM (inactive)
same,GI50,HOP-62,8.55 µM (inactive)
same,GI50,A498,> 100 µM (inactive)
same,GI50,OVCAR-5,> 100 µM (inactive)
same,GI50,786-0,> 100 µM (inactive)
same,GI50,A549,> 100 µM (inactive)
same,GI50,CCRF-CEM,> 100 µM (inactive)
same,GI50,NCI-H522,> 100 µM (inactive)
same,GI50,CAKI-1,> 100 µM (inactive)
same,GI50,SF-539,> 100 µM (inactive)
same,GI50,OVCAR-3,> 100 µM (inactive)
same,GI50,SK-MEL-5,> 100 µM (inactive)
same,GI50,SR,> 100 µM (inactive)
same,GI50,EKVX,> 100 µM (inactive)
same,GI50,T47D,> 100 µM (inactive)
same,GI50,HCT-116,> 100 µM (inactive)
same,GI50,IGROV-1,> 100 µM (inactive)
same,GI50,MDA-MB-231,> 100 µM (inactive)
same,GI50,UACC-62,> 100 µM (inactive)
same,GI50,U-251,> 100 µM (inactive)
same,GI50,NCI-H23,> 100 µM (inactive)
same,GI50,MCF7,> 100 µM (inactive)
same,GI50,SK-MEL-2,> 100 µM (inactive)
same,GI50,COLO 205,> 100 µM (inactive)
same,GI50,RXF 393,> 100 µM (inactive)
same,GI50,MDA-N,> 100 µM (inactive)
same,GI50,DU-145,> 100 µM (inactive)
same,GI50,SN12C,> 100 µM (inactive)
same,GI50,MOLT-4,> 100 µM (inactive)
same,GI50,OVCAR-4,> 100 µM (inactive)
same,GI50,Malme-3M,> 100 µM (inactive)
same,GI50,PC-3,> 100 µM (inactive)
O=C(CCCN1CCC2(CC1)CC(=O)N(N1CCOCC1)C2=O)c1ccccc1,GI50,MDA-MB-435,19.1 µM (inactive)
same,GI50,UO-31,> 100 µM (inactive)
same,GI50,M14,> 100 µM (inactive)
same,GI50,OVCAR-8,> 100 µM (inactive)
same,GI50,SK-OV-3,> 100 µM (inactive)
same,GI50,TK-10,> 100 µM (inactive)
same,GI50,HCT-15,> 100 µM
same,GI50,SF-268,> 100 µM (inactive)
same,GI50,BT-549,14.6 µM (inactive)
same,GI50,UACC-257,> 100 µM (inactive)
same,GI50,HCC 2998,> 100 µM (inactive)
same,GI50,LOX IMVI,> 100 µM (inactive)
same,GI50,K562,> 100 µM (inactive)
same,GI50,RPMI-8226,> 100 µM (inactive)
same,GI50,SF-295,> 100 µM (inactive)
same,GI50,HOP-62,> 100 µM (inactive)
same,GI50,SNB-19,> 100 µM (inactive)
same,GI50,OVCAR-5,> 100 µM (inactive)
same,GI50,786-0,> 100 µM (inactive)
same,GI50,A549,> 100 µM (inactive)
same,GI50,CCRF-CEM,> 100 µM (inactive)
same,GI50,NCI-H522,> 100 µM (inactive)
same,GI50,CAKI-1,> 100 µM (inactive)
same,GI50,SF-539,> 100 µM (inactive)
same,GI50,OVCAR-3,> 100 µM (inactive)
same,GI50,SK-MEL-5,> 100 µM (inactive)
same,GI50,HL-60,> 100 µM (inactive)
same,GI50,SR,> 100 µM (inactive)
same,GI50,SK-MEL-28,> 100 µM (inactive)
same,GI50,EKVX,> 100 µM (inactive)
same,GI50,T47D,> 100 µM (inactive)
same,GI50,HCT-116,> 100 µM (inactive)
same,GI50,IGROV-1,> 100 µM (inactive)
same,GI50,NCI-H226,> 100 µM (inactive)
same,GI50,SNB-75,> 100 µM (inactive)
same,GI50,MDA-MB-231,> 100 µM (inactive)
same,GI50,UACC-62,> 100 µM (inactive)
same,GI50,U-251,> 100 µM (inactive)
same,GI50,NCI-H23,> 100 µM (inactive)
same,GI50,MCF7,> 100 µM (inactive)
same,GI50,COLO 205,> 100 µM (inactive)
same,GI50,RXF 393,> 100 µM (inactive)
same,GI50,MDA-N,> 100 µM (inactive)
same,GI50,SW-620,> 100 µM (inactive)
same,GI50,NCI/ADR-RES,> 100 µM (inactive)
same,GI50,DU-145,> 100 µM (inactive)
same,GI50,HT-29,> 100 µM (inactive)
same,GI50,SN12C,> 100 µM (inactive)
same,GI50,MOLT-4,> 100 µM (inactive)
same,GI50,Malme-3M,> 100 µM (inactive)
same,GI50,PC-3,> 100 µM (inactive)
same,GI50,ACHN,> 100 µM (inactive)
same,GI50,KM12,> 100 µM (inactive)
CC(C)N1CN(c2ccccc2)C2(CCN(CCCC(=O)c3ccc(F)cc3)CC2)C1=O,GI50,MDA-MB-435,11.1 µM (inactive)
same,GI50,UO-31,19.4 µM (inactive)
same,GI50,M14,15.3 µM (inactive)
same,GI50,OVCAR-8,24 µM (inactive)
same,GI50,SK-OV-3,42 µM (inactive)
same,GI50,TK-10,12.1 µM (inactive)
same,GI50,HCT-15,6.31 µM
same,GI50,SF-268,6.7 µM (inactive)
same,GI50,UACC-257,2.74 µM (inactive)
same,GI50,Hs-578T,16.1 µM (inactive)
same,GI50,HCC 2998,7.14 µM (inactive)
same,GI50,NCI-H460,21.1 µM (inactive)
same,GI50,LOX IMVI,7.1 µM (inactive)
same,GI50,K562,25.6 µM (inactive)
same,GI50,RPMI-8226,10.3 µM (inactive)
same,GI50,SF-295,10.8 µM (inactive)
same,GI50,HOP-62,3.7 µM (inactive)
same,GI50,A498,2.97 µM (inactive)
same,GI50,SNB-19,12.7 µM (inactive)
same,GI50,OVCAR-5,5.42 µM (inactive)
same,GI50,786-0,6.9 µM (inactive)
same,GI50,HOP-92,3.78 µM (inactive)
same,GI50,A549,4.68 µM (inactive)
same,GI50,CCRF-CEM,1.83 µM (inactive)
same,GI50,NCI-H522,21 µM (inactive)
same,GI50,CAKI-1,4.13 µM (inactive)
same,GI50,SF-539,9.55 µM (inactive)
same,GI50,OVCAR-3,22 µM (inactive)
same,GI50,SK-MEL-5,2.55 µM (inactive)
same,GI50,HL-60,19.1 µM (inactive)
same,GI50,SR,18.1 µM (inactive)
same,GI50,SK-MEL-28,18.3 µM (inactive)
same,GI50,EKVX,12.7 µM (inactive)
same,GI50,T47D,6.07 µM (inactive)
same,GI50,HCT-116,2.04 µM (inactive)
same,GI50,IGROV-1,3.85 µM (inactive)
same,GI50,NCI-H226,6.64 µM (inactive)
same,GI50,SNB-75,36.1 µM (inactive)
same,GI50,MDA-MB-231,9.14 µM (inactive)
same,GI50,UACC-62,17.9 µM (inactive)
same,GI50,U-251,26.7 µM (inactive)
same,GI50,NCI-H23,6.7 µM (inactive)
same,GI50,MCF7,3.88 µM (inactive)
same,GI50,SK-MEL-2,14 µM (inactive)
same,GI50,COLO 205,0.483 µM (active)
same,GI50,RXF 393,28.4 µM (inactive)
same,GI50,MDA-N,14.9 µM (inactive)
same,GI50,SW-620,4.99 µM (inactive)
same,GI50,NCI/ADR-RES,5.55 µM (inactive)
same,GI50,DU-145,3.18 µM (inactive)
same,GI50,HT-29,1.79 µM (inactive)
same,GI50,SN12C,4.68 µM (inactive)
same,GI50,MOLT-4,5.92 µM (inactive)
same,GI50,OVCAR-4,3.26 µM (inactive)
same,GI50,Malme-3M,14.7 µM (inactive)
same,GI50,PC-3,18.9 µM (inactive)
same,GI50,ACHN,3.9 µM (inactive)
same,GI50,KM12,22 µM (inactive)
